Measured values: US9096643B2, “Cell-protective peptides and uses thereof” (priority 2010, dated 2015)
No end group written: not given here.

Tests used:
[1] = tested on: neonatal rat CMs (heart cells); test: Heart cell attachment on peptide-modified Az-chitosan coated coverslips (brightfield cell counts); type: cell-based, rat (Sprague-Dawley); details: coated glass coverslips, 1, 3 and 5 days of incubation, FIG. 1
Method: Neonatal (1 to 2 day-old) Sprague-Dawley rats were euthanized according to the procedure approved by the University of Toronto Committee on Animal Care. […] The supernatant from 5 collagenase digests of the tissues was collected and centrifuged at 750 rpm (94 g) for 4 min, resuspended in culture medium and pre-plated into T75 flasks (Falcon) for 1 hour to separate the non-adherent cells (enriched CMs) from the adherent cells (non-myocytes). The enriched CMs were used in the studies. The CM culture medium consisted of Dulbecco's Modified Eagle Medium (DMEM) with 4.5 g/L glucose, 4 mM L-glutamine, 10% certified fetal bovine serum (FBS), 100 U/mL penicillin, 100 μg/mL streptomycin, and 10 mM 4-2-hydroxyethyl-1-piperazineethanesulfonic acid buffer (HEPES, Gibco/Invitrogen).
The surfaces used for microscopy analysis were created on circular 12 mm diameter glass coverslips (VWR). These were plasma treated (WS-400BZ-6NPP/Lite, Laurell Technologies) for 30 s. […]
The day before cells were ready to be seeded, the surfaces in the 12-well plates were sterilized by germicidal UV illumination overnight. […]
Brightfield images were taken with 10× magnification of surfaces with cells (N=3) to visualize the morphology and cell attachment (IX81, Olympus). […] The number of cells was then counted using the cell counting plug-in on ImageJ (NIH version 1.36b).

[2] = tested on: Rat neonatal cardiomyocytes; test: Hydrogen peroxide treatment, Trypan blue viability (monolayer); type: cell-based; details: 500 μM peptide 1.5 hr, 100 μM H2O2 10 min, FIG. 5A
Method: Rat neonatal cardiomyocytes were incubated for 1.5 hr with 500 μM QHREDGS, scrambled (scram) QHREDGS peptide (DGQESHR), or PBS control (PBS); 200 nM ang 1 or its matched buffer control [0.1% bovine serum albumin (BSA) in PBS] in the culture medium. The culture medium consisted of Dulbecco's Modified Eagle's Medium (DMEM) with 0.5% BSA and cytosine-β-D-arabinofuranoside (anti-proliferative). Reactive oxygen species were increased by addition of 100 μM H2O2 for 10 min (37° C., 5% CO2) (N=6/group). Cell viability was measured using a Trypan blue stain. Trypan blue dye is impermeable to viable cells, but enters dead/damaged cells with impaired membrane integrity, staining cells blue.

[3] = tested on: Human ESC-derived cardiac cells (Hes2); test: H2O2 exposure, CFDA-Live/PI-Dead of human ESC-derived cardiac cells; type: cell-based; details: 50 μM, 100 μM H2O2 10 min, FIG. 19
Method: (§1) Human ESC-derived cardiac cell culture, were derived from Day 20 EBs, consisting of greater than 50% cardiomyocytes obtained by directed differentiation of human ES (Hes2) cells as described by Yang et al. (Nature 453, 524-528 (2008)). EBs were dissociated using Collagenase I (Invitrogen) for 2 hrs and 0.05% Trypsin-EDTA (Invitrogen) for 5 min and plated at 40000 cells/cm^2 onto 0.2% gelatin-coated plates in Stempro 34 medium supplemented with VEGF (10 ng/ml) and DKK1 (150 ng/ml). Cells were cultured in the presence of 50 μM QHREDGS, 50 μM DGQESHR (Biomatik) or PBS until they formed a beating monolayer, around 10 days. Peptides were replenished during media changes every 3 days. 100 μM H2O2 (Sigma, dissolved in PBS) was added to culture media for 10 min, washed, and analyzed immediately for CFDA-Live/PI-Dead. Live cells were counted using the cell counter plug in for ImageJ. 0.5 μM or 2.5 μM taxol (Sigma, dissolved in DMSO) was added to culture media for 24 hrs, and the extent of apoptosis was analyzed immediately using the Apo-ONE Homogeneous Caspase Assay (Promega), or TUNEL assay (Roche) as described above. A PBS control was used for H2O2 and DMSO control was used for taxol.

[4] = tested on: Rat neonatal cardiomyocytes; test: ATP assay (CellTiter-Glo) in serum-starved cardiomyocytes; type: cell-based; details: 500 μM peptide, 1 d
Method: Rat neonatal cardiomyocytes were incubated with PBS (control), 500 μM QHREDGS, scrambled QHREDGS peptide, GRGDSP peptide or 400 nM ang 1 or ang2 in DMEM/0.5% BSA/cytosine-β-D-arabinofuranoside (37° C., 5% CO2, 1 d). ATP levels were quantified using the CellTiter-Glo Luminescent Assay (Promega) as per manufacturer's instructions (N=6/group). Luminescence was measured using a Wallac 1420 microplate reader.

[5] = tested on: Rat neonatal cardiomyocytes; test: Doxorubicin induced apoptosis and caspase activation (Western blot); type: cell-based; details: 1 d, doses as low as 5 μM, FIG. 5B,C
Method: Rat neonatal cardiomyocytes were given doxorubicin (Dox) to induce apoptosis and PBS or peptide QHREDGS (1 d), Western blotting was conducted and levels assessed via densitometric analysis (Scion Image software).

[6] = tested on: Human ESC-derived cardiac cells (Hes2); test: Caspase 3/7 assay of human ESC-derived cardiac cells; type: cell-based; details: 50 μM, FIG. 20
Method: as §1

[7] = tested on: human iPS cells 0901B; test: Pluripotency markers Oct4 and SSEA4 by FACS; type: cell-based; details: 50 μM, five passages, FIG. 15
Method: (§2) Analytical flow cytometry was performed on a FACSCalibur flow cytometer (BD Biosciences) as described in Chiang et al. Acta Biomater. 6, 1904-1916 (2010), with an additional permeabilization step with 0.25% Triton-X (Sigma) for 10 min at 4° C. Oct4 (Millipore), SSEA-4 (Developmental Studies Hybridoma Bank) and Ki67 (Millipore) and all secondary antibodies (Jackson ImmunoResearch) were used at 1:100.

[8] = tested on: human iPS cells BJ1D; test: Pluripotency markers Oct4 and SSEA4 by FACS; type: cell-based; details: 50 μM, five passages, FIG. 14
Method: as §2

| Substance | cell adhesion / cell attachment to coated surface [1] | cardiomyocyte viability after exposure to H2O2 [2] | viability of cardiac cells (% Live-CFDA/Dead-PI) [3] | cardiac myocyte ATP levels [4] | activation of caspases-3 and -6 [5] | reduction of basal apoptosis levels in cardiac cells (Caspase 3/7) [6] [fold] | expression of Oct4 and SSEA4 (FACS) [7] | expression of Oct4 and SSEA4 (FACS) [8] |
| --- | --- | --- | --- | --- | --- | --- | --- | --- |
| Az-chitosan-QHREDGS: QHREDGS peptide covalently conjugated to Az-chitosan by EDC chemistry (also: covalently conjugated to Az-chitosan by EDC chemistry, site not given here) | significantly greater cell adhesion | – | – | – | – | – | – | – |
| QHREDGS (angiopoietin 1 peptide) | – | maintain cardiomyocyte viability | enhanced viability | substantially increased | blocked | 2 | comparable to both PBS and DGQESHR scrambled peptide controls | comparable to both PBS and DGQESHR scrambled peptide controls |
